Test results as given in patent US8952159B2, “Method for the production of amorphous rifaximin” (priority 2009, dated 2015).
≈ marks a conversion by molar mass, not a printed value.

Assay: Comparative test of solubility in water of different forms of rifaximin (spectrophotometric, absorbance at 450.50 nm)
Type: physicochemical
Settings: suspension in deionized water, constant stirring; for Solubility in water: 25° C.
Method: The solubility in water of different forms of rifaximin was evaluated by means of spectrophotometric method, by performing the analyses on a Lambda10 (Perkin Elmer) apparatus. The tests were performed at room temperature in demineralized water according to the following methodology. 1 g of commercial rifaximin (identified as form γ by X diffractometry) was dried in thermogravimetric apparatus at 105° C. until constant weight. 50.3 mg of the dried powder were weighed and brought in solution with deionized water in 2-L calibrated flask (solution 1). Under these conditions rifaximin was fully dissolved. On a portion of the obtained solution the spectral scanning was performed in the range of wavelengths comprised between 190 and 800 nm, by using as white deionized water. The obtained absorption spectrum points out an isolated maximum at 450.50 nm and such wavelength was used for the analytical measures. The calibration straight line was obtained by dilution of portions of the solution 1, thus obtaining the solution 2 (dilution 1:2.5), the solution 3 (1:10), the solution 4 (1:20) and the solution 5 (1:50). The straight line resulted to follow the Lambert-Beer law, showing linearity in the concentration range of the five measured reference solutions. For the tests for comparing the solubilities of the different forms, the absorbance of samples obtained from rifaximin suspensions in water excess subjected to constant stirring at 25° C. was measured. After drying at 105° C. until weight constancy, quantities properly weighed of the samples under examination (for a value of about 15 mg) were placed in becker under magnetic stirring, at 25° C. with 80 ml of deionized water. Measures on different samples obtained according to the methodologies reported in the examples 8 and 13 (defined full amorphous), on amorphous ones obtained as described in the examples 1 and 5 (with two halos) and compared to those of commercially available rifaximin, verified as form γ. In different periods of time comprised between 0.5 and 180 minutes, about 2-ml collections were performed, placed in test tube, having the prudence of preventing the collection of the suspended solid by means of filtration with filters for HPLC with porosity 0.2 μm. 0.3 ml of the collected solution were read at the UV by measuring the absorbance 450.50 nm. The samples with higher concentration, with absorbances so as to fall out of the range of the calibration straight line, were diluted until going back to the calibration range. Each experimental point consisted in 3 measures, the values thereof, coincident within 5% of error, were mediated. The concentrations are expressed in grams/liter.

Row | Structure (SMILES) | Solubility in water (time 0.5 min) [µg/mL] | Solubility in water (time 2 min) [µg/mL] | Solubility in water (time 5 min) [µg/mL] | Solubility in water (time 10 min) [µg/mL] | Solubility in water (time 30 min) [µg/mL] | Solubility in water (time 60 min) [µg/mL] | Solubility in water (time 120 min) [µg/mL] | Solubility in water (time 180 min) [µg/mL] | solubility at 120 min (deionized water, 25 °C, water, thermodynamic from solid, time 120 min) [µg/mL] | solubility at 1 min (deionized water, 25 °C, water, thermodynamic from solid, time 1 min) [µg/mL]
1 | CO[C@H]1/C=C/O[C@@]2(C)Oc3c(C)c(O)c4c(O)c(c5c(nc6cc(C)ccn65)c4c3C2=O)NC(=O)/C(C)=C\C=C\[C@H](C)[C@H](O)[C@@H](C)[C@@H](O)[C@@H](C)[C@H](OC(C)=O)[C@@H]1C [example 1, rifaximin] | 1.11 (≈ 1.41 µM) | 5.1 (≈ 6.49 µM) | 6.9 (≈ 8.78 µM) | 14 (≈ 17.8 µM) | 25 (≈ 31.8 µM) | 36 (≈ 45.8 µM) | 46 (≈ 58.5 µM) | 45 (≈ 57.3 µM) |  | 
2 | CO[C@H]1/C=C/O[C@@]2(C)Oc3c(C)c(O)c4c(O)c(c5c(nc6cc(C)ccn65)c4c3C2=O)NC(=O)/C(C)=C\C=C\[C@H](C)[C@H](O)[C@@H](C)[C@@H](O)[C@@H](C)[C@H](OC(C)=O)[C@@H]1C [example 5, rifaximin] |  |  | 7.1 (≈ 9.03 µM) | 15 (≈ 19.1 µM) | 27 (≈ 34.4 µM) | 37 (≈ 47.1 µM) | 44 (≈ 56 µM) | 46 (≈ 58.5 µM) |  | 
3 | CO[C@H]1/C=C/O[C@@]2(C)Oc3c(C)c(O)c4c(O)c(c5c(nc6cc(C)ccn65)c4c3C2=O)NC(=O)/C(C)=C\C=C\[C@H](C)[C@H](O)[C@@H](C)[C@@H](O)[C@@H](C)[C@H](OC(C)=O)[C@@H]1C [example 8, rifaximin] | 3.3 (≈ 4.2 µM) | 13 (≈ 16.5 µM) | 29 (≈ 36.9 µM) | 51 (≈ 64.9 µM) | 76 (≈ 96.7 µM) | 82 (≈ 104 µM) |  | 86.4 (≈ 110 µM) | 85 (≈ 108 µM) | 
4 | CO[C@H]1/C=C/O[C@@]2(C)Oc3c(C)c(O)c4c(O)c(c5c(nc6cc(C)ccn65)c4c3C2=O)NC(=O)/C(C)=C\C=C\[C@H](C)[C@H](O)[C@@H](C)[C@@H](O)[C@@H](C)[C@H](OC(C)=O)[C@@H]1C [example 13, rifaximin] |  |  | 31 (≈ 39.4 µM) | 55 (≈ 70 µM) | 72 (≈ 91.6 µM) | 81 (≈ 103 µM) | 86 (≈ 109 µM) | 89 (≈ 113 µM) |  | 
5 | CO[C@H]1/C=C/O[C@@]2(C)Oc3c(C)c(O)c4c(O)c(c5c(nc6cc(C)ccn65)c4c3C2=O)NC(=O)/C(C)=C\C=C\[C@H](C)[C@H](O)[C@@H](C)[C@@H](O)[C@@H](C)[C@H](OC(C)=O)[C@@H]1C [form γ, rifaximin] | 2.7 (≈ 3.44 µM) | 5.9 (≈ 7.51 µM) | 8.2 (≈ 10.4 µM) | 15 (≈ 19.1 µM) | 23 (≈ 29.3 µM) | 37 (≈ 47.1 µM) | 43 (≈ 54.7 µM) | 42 (≈ 53.4 µM) |  | 5.4 (≈ 6.87 µM)
